Key:
A549 = test: Anticancer activity human A549 cells assessed as growth inhibition by MTT colorimetric assay; assay type: functional, cell-based
[1] = Anticancer activity human U373 cells assessed as growth inhibition by MTT colorimetric assay; assay type: functional, cell-based, U-373MG ATCC; conditions: U373 MG
MCF7 = test: Anticancer activity human MCF7 cells assessed as growth inhibition by MTT colorimetric assay; assay type: functional, cell-based
[2] = Anticancer activity mouse B16F10 cells assessed as growth inhibition by MTT colorimetric assay; assay type: functional, cell-based; conditions: B16-F10
SK-MEL-28 = test: Anticancer activity human SK-MEL-28 cells assessed as growth inhibition by MTT colorimetric assay; assay type: functional, cell-based
[3] = Anticancer activity human Hs683 cells assessed as growth inhibition by MTT colorimetric assay; assay type: functional, cell-based; conditions: Hs 683
[4] = Cytotoxicity against human NHLF cells by MTT colorimetric assay; assay type: cell-based
NHDF = test: Cytotoxicity against human NHDF cells by MTT colorimetric assay; assay type: cell-based

IC50 (A549) [µM]	IC50 (MCF7) [µM]	IC50 (SK-MEL-28) [µM]	Structure (SMILES)	IC50 [1] [µM]	IC50 [2] [µM]	IC50 [3] [µM]	Activity [4]	Activity (NHDF)
> 100	> 100	> 100	COc1ccc(-c2cn3nc(-c4ccccc4)c(C(=O)N4CCOCC4)c3n2C)cc1	> 100	76	> 100		
22	35	16	COc1ccc(-c2c(-c3ccccc3C#N)n3nc(-c4ccccc4)cc3n2C)cc1	13		26		
> 100	> 100	> 100	COc1ccc(-c2c(-c3ccc(OC)cc3)n3nc(-c4ccccc4)cc3n2C)cc1	96		> 100		
> 100	> 100	> 100	COc1ccc(-c2c(-c3ccc(C(F)(F)F)cc3)n3nc(-c4ccccc4)cc3n2C)cc1	> 100		> 100		
1.3	1.9	2.3	COc1ccc(-c2c(-c3ccc(C(F)(F)F)cc3)n3nc(-c4ccccc4)c(CN4CCOCC4)c3n2C)cc1	0.8	2.1	0.9	Non-toxic	Non-toxic
5	16	5	COc1ccc(-c2c(-c3ccncc3)n3nc(-c4ccccc4)c(CN4CCOCC4)c3n2C)cc1	12	2	3		
37	59	28	COc1ccc(-c2c(-c3ccc(C(F)(F)F)cc3)n(C)c3c(CN4CCOCC4)c(-c4ccccc4)nn23)cc1	20	38	62		

Second part, the compound before the results:

Structure (SMILES)	IC50 (A549) [µM]	IC50 (MCF7) [µM]	IC50 (SK-MEL-28) [µM]	IC50 [1] [µM]	IC50 [2] [µM]	IC50 [3] [µM]	Activity [4]	Activity (NHDF)
COc1ccc(-c2cn3nc(-c4ccccc4)c(CN4CCOCC4)c3n2C)cc1	9	5	14	4	5	5		
COc1ccc(-c2cn3nc(-c4ccccc4)c(C(=O)N4CCN(C)CC4)c3n2C)cc1	> 100	88	> 100	> 100	74	> 100		
COc1ccc(-c2c(-c3cccc(C)c3)n3nc(-c4ccccc4)cc3n2C)cc1	31	75	29	46		59		
COc1ccc(-c2c(-c3ccc(C(F)(F)F)cc3)n3nc(-c4ccccc4)c(CN4CCN(C)CC4)c3n2C)cc1	20	20	19	24	23	21		
COc1ccc(-c2c(-c3ccc(C)cc3)n3nc(-c4ccccc4)c(CN4CCOCC4)c3n2C)cc1	37	45	> 100	30	46	48		
COc1ccc(-c2c(-c3ccc(C)cc3)n3nc(-c4ccccc4)c(CN4CCN(C)CC4)c3n2C)cc1	20	18	21	19	12	18		
COc1ccc(-c2c(-c3ccc(C)cc3)n3nc(-c4ccccc4)c(CN4CCCCC4)c3n2C)cc1	51	72	39	33	25	37		

— ChEMBL document CHEMBL3352646, “New imidazo[1,2-b]pyrazoles as anticancer agents: synthesis, biological evaluation and structure activity relationship analysis” (Eur J Med Chem, 2014)
